The supplement of paper PMC13380429

Assays:
Settings in all cases: 72 h
Caco-2 [1] = assay: relative viability EC50 (midpoint between 100% and the lowest measured viability); higher = less toxic
HepG2 [2] = assay: as above
Calu-3 [3] = assay: as above
U2OS [4] = assay: as above
Vero E6 [5] = assay: as above
Caco-2 [6] = assay: drug sensitivity score (DSS) for viability; higher = more toxic; extreme values may be limits of the assay
HepG2 [7] = assay: as above
Calu-3 [8] = assay: as above
U2OS [9] = assay: as above
Vero E6 [10] = assay: as above
Caco-2 [11] = assay: cell viability relative to DMSO; higher = less toxic
HepG2 [12] = assay: as above
Calu-3 [13] = assay: as above
U2OS [14] = assay: as above
Vero E6 [15] = assay: as above

Compound | relative viability EC50 (Caco-2 [1]) [µM] | relative viability EC50 (HepG2 [2]) [µM] | relative viability EC50 (Calu-3 [3]) [µM] | relative viability EC50 (U2OS [4]) [µM] | relative viability EC50 (Vero E6 [5]) [µM] | drug sensitivity score (Caco-2 [6]) | drug sensitivity score (HepG2 [7]) | drug sensitivity score (Calu-3 [8]) | drug sensitivity score (U2OS [9]) | drug sensitivity score (Vero E6 [10]) | cell viability (Caco-2 [11]; 1 nM) [%] | cell viability (Caco-2 [11]; 10 nM) [%] | cell viability (Caco-2 [11]; 100 nM) [%] | cell viability (Caco-2 [11]; 1000 nM) [%] | cell viability (Caco-2 [11]; 10000 nM) [%] | cell viability (HepG2 [12]; 1 nM) [%] | cell viability (HepG2 [12]; 10 nM) [%] | cell viability (HepG2 [12]; 100 nM) [%] | cell viability (HepG2 [12]; 1000 nM) [%] | cell viability (HepG2 [12]; 10000 nM) [%] | cell viability (Calu-3 [13]; 1 nM) [%] | cell viability (Calu-3 [13]; 10 nM) [%] | cell viability (Calu-3 [13]; 100 nM) [%] | cell viability (Calu-3 [13]; 1000 nM) [%] | cell viability (Calu-3 [13]; 10000 nM) [%] | cell viability (U2OS [14]; 1 nM) [%] | cell viability (U2OS [14]; 10 nM) [%] | cell viability (U2OS [14]; 100 nM) [%] | cell viability (U2OS [14]; 1000 nM) [%] | cell viability (U2OS [14]; 10000 nM) [%] | cell viability (Vero E6 [15]; 1 nM) [%] | cell viability (Vero E6 [15]; 10 nM) [%] | cell viability (Vero E6 [15]; 100 nM) [%] | cell viability (Vero E6 [15]; 1000 nM) [%] | cell viability (Vero E6 [15]; 10000 nM) [%]
Cn1ncc2c(N3CCOCC3)nc(-c3cccc(O)c3)nc21 | 0.938 | 2.74 | 1.64 | 2.1 | 1.35 | 8.7 | 5.1 | 6.7 | 5.5 | 7 | 99.9 | 108 | 94.5 | 61.5 | 25.2 | 100 | 101 | 111 | 95.6 | 19.8 | 86.3 | 102 | 83.7 | 79.1 | 24.5 | 98.8 | 99.6 | 99.3 | 90.6 | 28.9 | 100 | 102 | 98.9 | 78 | 30.9
Ic1cncc(OC[C@@H]2CCN2)c1 | > 10 | > 10 | > 10 | > 10 | > 10 | 0 | 0 | 0 | 0 | 0 | 102 | 97.2 | 94 | 100 | 108 | 94 | 94 | 99.4 | 98 | 105 | 98.4 | 98.4 | 102 | 97 | 102 | 92.1 | 102 | 96.7 | 99.5 | 106 | 97.4 | 92.7 | 96.6 | 95.3 | 102
NC(=O)c1ccc(-c2nc(-c3ccccn3)c(-c3ccc4c(c3)OCO4)[nH]2)cc1 | > 10 | > 10 | > 10 | > 10 | > 10 | 0 | 0.7 | 0 | 0 | 0 | 89.3 | 106 | 92.5 | 106 | 101 | 107 | 93.6 | 103 | 96 | 83.9 | 92.2 | 95 | 91.9 | 110 | 103 | 91.2 | 96.6 | 96 | 97.1 | 92.4 | 98.3 | 92.4 | 96.1 | 97.8 | 105
O=C(NC1CCOCC1)c1ccc(-c2cc(-c3c[nH]nc3-c3ccccn3)ccn2)cc1 | > 10 | > 10 | > 10 | > 10 | > 10 | 0 | 0 | 0 | 0 | 0 | 91 | 97.2 | 100 | 95.7 | 93.9 | 96.2 | 99.9 | 94.8 | 104 | 93.8 | 101 | 120 | 103 | 99.6 | 108 | 98.2 | 98.4 | 100 | 94.4 | 92.2 | 93.4 | 103 | 98.8 | 107 | 102
O=C(NCc1ccncc1)C12CC3CC(C1)CC(c1ccc(Cl)cc1)(C3)C2 | > 10 | > 10 | > 10 | > 10 | > 10 | 0 | 0 | 0.5 | 0 | 0 | 99.6 | 94.9 | 98.6 | 96 | 92.9 | 96.7 | 107 | 105 | 98 | 93.7 | 104 | 100 | 89 | 92.2 | 89.3 | 97.4 | 99.2 | 101 | 97.8 | 93.5 | 102 | 104 | 104 | 105 | 89.3
O=C(O)c1cc(C(=O)O)c(C(=O)N(Cc2cccc(Oc3ccccc3)c2)[C@H]2CCCc3ccccc32)cc1C(=O)O | > 10 | > 10 | > 10 | > 10 | > 10 | 0 | 0 | 0 | 0 | 0 | 106 | 99.1 | 90.4 | 99.8 | 103 | 98.5 | 106 | 102 | 107 | 98.4 | 102 | 98.8 | 103 | 104 | 106 | 102 | 94.4 | 99.4 | 91.3 | 109 | 98.2 | 102 | 96.9 | 98.9 | 102
O=C(c1c(O)nc2cc(Cl)ccc2c1O)C1CC1 | > 10 | > 10 | > 10 | > 10 | > 10 | 0 | 0 | 0 | 0 | 0 | 94.7 | 91.3 | 90.1 | 93.5 | 98.4 | 97.7 | 112 | 89.6 | 102 | 104 | 96.5 | 88.1 | 106 | 97.1 | 96.5 | 99.9 | 98.6 | 102 | 96 | 98.1 | 90.4 | 98.6 | 90.1 | 95.9 | 109
